Results as given in patent publication US6737383B1, “Herbicidal oxadiazolidines” (priority 1999, dated 2004).

How the values were obtained:
velvetleaf = test: Test B pre/postemergence velvetleaf; format: in vivo, Abutilon theophrasti
Method in brief: (§1)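 Response is a visual 0-to-10 score relative to untreated plants, where 0 means no effect and 10 means complete control, taken twelve to sixteen days after application. Treatments went onto soil at planting and onto foliage of 1- to 4-leaf plants, using a surfactant-containing non-phytotoxic solvent.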

surinam grass = test: Test B pre/postemergence surinam grass; format: in vivo, Brachiaria decumbens
From the text: (§2) Seeds of bedstraw (Galium aparine), blackgrass (Alopecurus myosuroides), surinam grass (Brachiaria decumbens), cocklebur (Xanthium strumarium), corn (Zea mays), crabgrass (Digitaria sanguinalis), giant foxtail (Setaria faberii), morningglory (Ipomoea hederacea), pigweed (Amaranthus retroflexus), rape (Brassica napus), soybean (Glycine max), sugar beet (Beta vulgaris), velvetleaf (Abutilon theophrasti), wheat (Triticum aestivum), wild oat (Avena fatua) and purple nutsedge (Cyperus rotundus) tubers were planted and treated preemnergence with test chemicals formulated in a non-phytotoxic solvent mixture which included a surfactant.
(§3) At the same time, these crop and weed species were also treated with postemergence applications of test chemicals formulated in the same manner. Plants ranged in height from 2 to 18 cm (1- to 4-leaf stage) for postemergence treatments. Plant species in the flood test consisted of rice (Oryza sativa), smallflower flatsedge (Cyperus difformis), duck salad (Heteranthera limosa) and bamyardgrass (Echinochloa crus-galli) grown to the 2-leaf stage for testing. Treated plants and controls were maintained in a greenhouse for twelve to sixteen days, after which all species were compared to controls and visually evaluated. Plant response ratings, summarized in Table B, are based on a scale of 0 to 10 where 0 is no effect and 10 is complete control. A dash (−) response means no test result.

rape = test: Test B pre/postemergence rape; format: in vivo, Brassica napus
From the text: as §2, §3

giant foxtail = test: Test B pre/postemergence giant foxtail; format: in vivo, Setaria faberii
From the text: as §2, §3

bedstraw = test: Test B pre/postemergence bedstraw; format: in vivo, Galium aparine
Method in brief: as §1

morningglory = test: Test B pre/postemergence morningglory; format: in vivo, Ipomoea hederacea
From the text: as §2, §3

pigweed = test: Test B pre/postemergence pigweed; format: in vivo, Amaranthus retroflexus
From the text: as §2, §3

purple nutsedge = test: Test B pre/postemergence purple nutsedge; format: in vivo, Cyperus rotundus
Method in brief: as §1

cocklebur = test: Test B pre/postemergence cocklebur; format: in vivo, Xanthium strumarium
Method in brief: as §1

sugar beet = test: Test B pre/postemergence sugar beet; format: in vivo, Beta vulgaris
Method in brief: as §1

crabgrass = test: Test B pre/postemergence crabgrass; format: in vivo, Digitaria sanguinalis
Method in brief: as §1

corn = test: Test B pre/postemergence corn; format: in vivo, Zea mays
From the text: as §2, §3

wild oat = test: Test B pre/postemergence wild oat; format: in vivo, Avena fatua
From the text: as §2, §3

wheat = test: Test B pre/postemergence wheat; format: in vivo, Triticum aestivum
Method in brief: as §1

soybean = test: Test B pre/postemergence soybean; format: in vivo, Glycine max
Method in brief: as §1

blackgrass = test: Test B pre/postemergence blackgrass; format: in vivo, Alopecurus myosuroides
From the text: as §2, §3

[1] = Preemergence, Rate 62 g/ha, scale of 0 to 10 where 0 is no effect and 10 is complete control
[2] = Preemergence, Rate 250 g/ha, scale of 0 to 10 where 0 is no effect and 10 is complete control
[3] = Preemergence, Rate 500 g/ha, scale of 0 to 10 where 0 is no effect and 10 is complete control
[4] = Rate 125 g/ha, Preemergence, scale of 0 to 10 where 0 is no effect and 10 is complete control
[5] = Rate 500 g/ha, Postemergence, scale 0 to 10, 0 no effect, 10 complete control
[6] = Rate 62 g/ha, Postemergence, scale of 0 to 10 where 0 is no effect and 10 is complete control
[7] = Rate 125 g/ha, Postemergence, scale 0 (no effect) to 10 (complete control)
[8] = Rate 125 g/ha, Postemergence, scale 0 to 10

CC(C)N(C(=O)n1oc(=O)n(COCc2ccccc2)c1=O)c1ccc(F)cc1 [Compound 261]
3: Plant response rating, B. signalgrass (surinam grass; [3]) | Crabgrass plant response rating (crabgrass; [4])
0: Velvetleaf plant response rating (velvetleaf; [1]) | Velvetleaf plant response rating (velvetleaf; [2]) | Plant response rating, Velvetleaf (velvetleaf; [3]) | Velvetleaf plant response rating (velvetleaf; [4]) | B. signalgrass plant response rating (surinam grass; [1]) | B. signalgrass plant response rating (surinam grass; [2]) | B. signalgrass plant response rating (surinam grass; [6]) | B. signalgrass plant response rating (surinam grass; [7]) | B. signalgrass plant response rating (surinam grass; [4]) | Plant response rating (0 to 10; 0 is no effect, 10 is complete control), B. signalgrass (surinam grass; Rate 250 g/ha, Postemergence) | B. signalgrass plant response rating (surinam grass; [5]) | Rape plant response rating (rape; [1]) | Rape plant response rating (rape; [2]) | Plant response rating, Rape (rape; [3]) | Rape plant response rating (rape; [4]) | Plant response rating (0 to 10; 0 is no effect, 10 is complete control), Rape (rape; Rate 250 g/ha, Postemergence) | Rape plant response rating (rape; [5]) | Plant response rating (0 to 10; 0 is no effect, 10 is complete control), Giant foxtail (giant foxtail; Rate 250 g/ha, Postemergence) | Giant foxtail plant response rating (giant foxtail; [5]) | Bedstraw plant response rating (bedstraw; [6]) | Morningglory plant response rating (morningglory; [1]) | Morningglory plant response rating (morningglory; [2]) | Plant response rating, Morningglory (morningglory; [3]) | Morningglory plant response rating (morningglory; [4]) | Redroot pigweed plant response rating (pigweed; [1]) | Redroot pigweed plant response rating (pigweed; [2]) | Plant response rating, Redroot pigweed (pigweed; [3]) | Redroot pigweed plant response rating (pigweed; [4]) | Nutsedge plant response rating (purple nutsedge; [2]) | Plant response rating, Nutsedge (purple nutsedge; [3]) | Nutsedge plant response rating (purple nutsedge; [4]) | Plant response rating (0 to 10; 0 is no effect, 10 is complete control), Nutsedge (purple nutsedge; Rate 250 g/ha, Postemergence) | Nutsedge plant response rating (purple nutsedge; [5]) | Cocklebur plant response rating (cocklebur; [1]) | Cocklebur plant response rating (cocklebur; [2]) | Plant response rating, Cocklebur (cocklebur; [3]) | Cocklebur plant response rating (cocklebur; [6]) | Cocklebur plant response rating (cocklebur; [8]) | Cocklebur plant response rating (cocklebur; [4]) | Plant response rating (0 to 10; 0 is no effect, 10 is complete control), Cocklebur (cocklebur; Rate 250 g/ha, Postemergence) | Sugarbeets plant response rating (sugar beet; [1]) | Sugarbeets plant response rating (sugar beet; [2]) | Plant response rating, Sugarbeets (sugar beet; [3]) | Sugarbeets plant response rating (sugar beet; [4]) | Sugarbeets plant response rating (sugar beet; [5]) | Plant response rating (0 to 10; 0 is no effect, 10 is complete control), Crabgrass (crabgrass; Rate 250 g/ha, Postemergence) | Crabgrass plant response rating (crabgrass; [5]) | Corn plant response rating (corn; [1]) | Corn plant response rating (corn; [2]) | Plant response rating, Corn (corn; [3]) | Corn plant response rating (corn; [6]) | Corn plant response rating (corn; [8]) | Corn plant response rating (corn; [4]) | Plant response rating (0 to 10; 0 is no effect, 10 is complete control), Corn (corn; Rate 250 g/ha, Postemergence) | Corn plant response rating (corn; [5]) | Wild oats plant response rating (wild oat; [1]) | Wild oats plant response rating (wild oat; [2]) | Plant response rating, Wild oats (wild oat; [3]) | Wild oats plant response rating (wild oat; [4]) | Wild oats plant response rating (wild oat; [5]) | Wheat plant response rating (wheat; [1]) | Wheat plant response rating (wheat; [2]) | Plant response rating, Wheat (wheat; [3]) | Wheat plant response rating (wheat; [4]) | Soybean plant response rating (soybean; [1]) | Soybean plant response rating (soybean; [2]) | Plant response rating, Soybean (soybean; [3]) | Soybean plant response rating (soybean; [4]) | Blackgrass plant response rating (blackgrass; [1]) | Blackgrass plant response rating (blackgrass; [6]) | Blackgrass plant response rating (blackgrass; [8]) | Blackgrass plant response rating (blackgrass; [4]) | Plant response rating (0 to 10; 0 is no effect, 10 is complete control), Blackgrass (blackgrass; Rate 250 g/ha, Postemergence)
1: Velvetleaf plant response rating (velvetleaf; [5]) | Plant response rating (0 to 10; 0 is no effect, 10 is complete control), Redroot pigweed (pigweed; Rate 250 g/ha, Postemergence) | Cocklebur plant response rating (cocklebur; [5]) | Blackgrass plant response rating (blackgrass; [2])
9: Giant foxtail plant response rating (giant foxtail; [2]) | Plant response rating, Giant foxtail (giant foxtail; [3])
6: Plant response rating (0 to 10; 0 is no effect, 10 is complete control), Morningglory (morningglory; Rate 250 g/ha, Postemergence) | Morningglory plant response rating (morningglory; [5])
8: Giant foxtail plant response rating (giant foxtail; [1]) | Giant foxtail plant response rating (giant foxtail; [4])
5: Crabgrass plant response rating (crabgrass; [2]) | Plant response rating, Crabgrass (crabgrass; [3]) | Blackgrass plant response rating (blackgrass; [5])
4: Soybean plant response rating (soybean; [5]) | Plant response rating, Blackgrass (blackgrass; [3])
2: Redroot pigweed plant response rating (pigweed; [5]) | Crabgrass plant response rating (crabgrass; [1]) | Wheat plant response rating (wheat; [5])

COC(=O)C=CCn1c(=O)on(C(=O)N(c2ccc(F)cc2)C(C)C)c1=O [Compound 263]
2: Velvetleaf plant response rating (velvetleaf; [5]) | Giant foxtail plant response rating (giant foxtail; [1]) | Plant response rating, Crabgrass (crabgrass; [3]) | Crabgrass plant response rating (crabgrass; [5]) | Wheat plant response rating (wheat; [5])
1: Soybean plant response rating (soybean; [5])
9: Giant foxtail plant response rating (giant foxtail; [2]) | Plant response rating, Giant foxtail (giant foxtail; [3]) | Giant foxtail plant response rating (giant foxtail; [4])
4: Plant response rating (0 to 10; 0 is no effect, 10 is complete control), Morningglory (morningglory; Rate 250 g/ha, Postemergence)
5: Blackgrass plant response rating (blackgrass; [5])
3: Plant response rating, Velvetleaf (velvetleaf; [3]) | Giant foxtail plant response rating (giant foxtail; [5]) | Plant response rating (0 to 10; 0 is no effect, 10 is complete control), Blackgrass (blackgrass; Rate 250 g/ha, Postemergence)
7: Morningglory plant response rating (morningglory; [5])
0: Velvetleaf plant response rating (velvetleaf; [1]) | Velvetleaf plant response rating (velvetleaf; [2]) | Velvetleaf plant response rating (velvetleaf; [4]) | B. signalgrass plant response rating (surinam grass; [1]) | B. signalgrass plant response rating (surinam grass; [2]) | Plant response rating, B. signalgrass (surinam grass; [3]) | B. signalgrass plant response rating (surinam grass; [6]) | B. signalgrass plant response rating (surinam grass; [7]) | B. signalgrass plant response rating (surinam grass; [4]) | Plant response rating (0 to 10; 0 is no effect, 10 is complete control), B. signalgrass (surinam grass; Rate 250 g/ha, Postemergence) | B. signalgrass plant response rating (surinam grass; [5]) | Rape plant response rating (rape; [1]) | Rape plant response rating (rape; [2]) | Plant response rating, Rape (rape; [3]) | Rape plant response rating (rape; [4]) | Plant response rating (0 to 10; 0 is no effect, 10 is complete control), Rape (rape; Rate 250 g/ha, Postemergence) | Rape plant response rating (rape; [5]) | Plant response rating (0 to 10; 0 is no effect, 10 is complete control), Giant foxtail (giant foxtail; Rate 250 g/ha, Postemergence) | Bedstraw plant response rating (bedstraw; [1]) | Bedstraw plant response rating (bedstraw; [2]) | Plant response rating, Bedstraw (bedstraw; [3]) | Bedstraw plant response rating (bedstraw; [6]) | Bedstraw plant response rating (bedstraw; [8]) | Bedstraw plant response rating (bedstraw; [4]) | Morningglory plant response rating (morningglory; [1]) | Morningglory plant response rating (morningglory; [2]) | Plant response rating, Morningglory (morningglory; [3]) | Morningglory plant response rating (morningglory; [4]) | Redroot pigweed plant response rating (pigweed; [1]) | Redroot pigweed plant response rating (pigweed; [2]) | Plant response rating, Redroot pigweed (pigweed; [3]) | Redroot pigweed plant response rating (pigweed; [4]) | Plant response rating (0 to 10; 0 is no effect, 10 is complete control), Redroot pigweed (pigweed; Rate 250 g/ha, Postemergence) | Redroot pigweed plant response rating (pigweed; [5]) | Nutsedge plant response rating (purple nutsedge; [1]) | Nutsedge plant response rating (purple nutsedge; [2]) | Plant response rating, Nutsedge (purple nutsedge; [3]) | Nutsedge plant response rating (purple nutsedge; [4]) | Plant response rating (0 to 10; 0 is no effect, 10 is complete control), Nutsedge (purple nutsedge; Rate 250 g/ha, Postemergence) | Nutsedge plant response rating (purple nutsedge; [5]) | Cocklebur plant response rating (cocklebur; [1]) | Cocklebur plant response rating (cocklebur; [2]) | Cocklebur plant response rating (cocklebur; [6]) | Cocklebur plant response rating (cocklebur; [8]) | Cocklebur plant response rating (cocklebur; [4]) | Plant response rating (0 to 10; 0 is no effect, 10 is complete control), Cocklebur (cocklebur; Rate 250 g/ha, Postemergence) | Cocklebur plant response rating (cocklebur; [5]) | Sugarbeets plant response rating (sugar beet; [1]) | Sugarbeets plant response rating (sugar beet; [2]) | Plant response rating, Sugarbeets (sugar beet; [3]) | Sugarbeets plant response rating (sugar beet; [4]) | Sugarbeets plant response rating (sugar beet; [5]) | Crabgrass plant response rating (crabgrass; [1]) | Crabgrass plant response rating (crabgrass; [2]) | Crabgrass plant response rating (crabgrass; [4]) | Plant response rating (0 to 10; 0 is no effect, 10 is complete control), Crabgrass (crabgrass; Rate 250 g/ha, Postemergence) | Corn plant response rating (corn; [1]) | Corn plant response rating (corn; [2]) | Plant response rating, Corn (corn; [3]) | Corn plant response rating (corn; [6]) | Corn plant response rating (corn; [8]) | Corn plant response rating (corn; [4]) | Plant response rating (0 to 10; 0 is no effect, 10 is complete control), Corn (corn; Rate 250 g/ha, Postemergence) | Corn plant response rating (corn; [5]) | Wild oats plant response rating (wild oat; [1]) | Wild oats plant response rating (wild oat; [2]) | Plant response rating, Wild oats (wild oat; [3]) | Wild oats plant response rating (wild oat; [4]) | Wild oats plant response rating (wild oat; [5]) | Wheat plant response rating (wheat; [1]) | Wheat plant response rating (wheat; [2]) | Plant response rating, Wheat (wheat; [3]) | Wheat plant response rating (wheat; [4]) | Soybean plant response rating (soybean; [1]) | Soybean plant response rating (soybean; [2]) | Plant response rating, Soybean (soybean; [3]) | Soybean plant response rating (soybean; [4]) | Blackgrass plant response rating (blackgrass; [1]) | Blackgrass plant response rating (blackgrass; [2]) | Plant response rating, Blackgrass (blackgrass; [3]) | Blackgrass plant response rating (blackgrass; [6]) | Blackgrass plant response rating (blackgrass; [8]) | Blackgrass plant response rating (blackgrass; [4])
